# From patent US10758534B2 (Vertex Pharmaceuticals Incorporated, priority 2014, dated 2020)
# Target: T1, F508del (Homo sapiens, UniProt P13569, DEL508-508)
# T1 construct: expressed in transfected cells
# Test: Protocol 1: membrane potential optical assay (FLIPR III, voltage sensing dye), identification of potentiator compounds
# Assay type: cell-based
# Conditions: Table 3, compounds of Table 1
# In short: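 Membrane potential in forskolin-activated, temperature-rescued F508del NIH 3T3 cells is followed with a voltage-sensing dye on FLIPR III. A chloride ion gradient created at the single addition step provides the driving force, after prior compound treatment.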
# T1 sequence (P13569 with tags, fused parts or gaps DEL508-508): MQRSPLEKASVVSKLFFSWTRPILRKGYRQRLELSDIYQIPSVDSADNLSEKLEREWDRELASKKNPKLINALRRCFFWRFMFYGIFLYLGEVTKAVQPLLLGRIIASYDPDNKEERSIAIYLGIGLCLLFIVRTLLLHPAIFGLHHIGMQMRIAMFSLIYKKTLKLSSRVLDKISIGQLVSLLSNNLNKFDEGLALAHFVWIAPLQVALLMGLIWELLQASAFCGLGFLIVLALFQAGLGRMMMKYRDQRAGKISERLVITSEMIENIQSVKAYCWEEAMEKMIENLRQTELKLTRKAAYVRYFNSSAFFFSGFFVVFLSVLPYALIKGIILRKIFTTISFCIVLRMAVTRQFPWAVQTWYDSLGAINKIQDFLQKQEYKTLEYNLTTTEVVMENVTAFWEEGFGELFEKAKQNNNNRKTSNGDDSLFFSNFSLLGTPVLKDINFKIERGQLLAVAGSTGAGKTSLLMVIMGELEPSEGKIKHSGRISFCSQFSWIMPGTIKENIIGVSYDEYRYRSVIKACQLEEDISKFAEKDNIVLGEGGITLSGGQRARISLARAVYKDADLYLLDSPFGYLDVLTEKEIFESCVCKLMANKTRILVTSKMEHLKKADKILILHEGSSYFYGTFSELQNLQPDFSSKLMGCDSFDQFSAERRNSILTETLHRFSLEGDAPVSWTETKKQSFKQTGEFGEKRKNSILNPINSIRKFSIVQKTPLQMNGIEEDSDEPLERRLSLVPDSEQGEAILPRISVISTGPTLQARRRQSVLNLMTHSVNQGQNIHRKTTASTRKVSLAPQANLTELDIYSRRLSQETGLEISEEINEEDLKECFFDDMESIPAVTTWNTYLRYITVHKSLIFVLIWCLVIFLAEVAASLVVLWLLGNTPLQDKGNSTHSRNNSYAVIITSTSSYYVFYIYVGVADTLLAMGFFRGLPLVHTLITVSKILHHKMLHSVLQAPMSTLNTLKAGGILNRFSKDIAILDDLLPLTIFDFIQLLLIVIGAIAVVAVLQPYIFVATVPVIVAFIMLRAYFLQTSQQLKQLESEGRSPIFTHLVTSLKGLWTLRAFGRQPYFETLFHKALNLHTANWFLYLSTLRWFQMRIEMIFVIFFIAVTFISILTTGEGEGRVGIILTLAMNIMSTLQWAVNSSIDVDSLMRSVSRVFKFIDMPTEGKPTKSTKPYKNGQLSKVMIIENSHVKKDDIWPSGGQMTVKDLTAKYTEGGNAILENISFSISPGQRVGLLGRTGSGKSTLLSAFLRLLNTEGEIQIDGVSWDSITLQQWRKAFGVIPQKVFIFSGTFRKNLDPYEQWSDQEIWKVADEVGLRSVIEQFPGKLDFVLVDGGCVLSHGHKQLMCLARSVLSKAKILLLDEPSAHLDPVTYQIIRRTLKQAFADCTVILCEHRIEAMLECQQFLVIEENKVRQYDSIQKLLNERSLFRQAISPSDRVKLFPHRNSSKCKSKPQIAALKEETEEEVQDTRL
row,EC30,SMILES
1,+++ (“+++” means <3 uM),"CC1CN(c2nc(-c3cnc(OC(C)C)cn3)ccc2C(=O)NS(=O)(=O)c2cccc(N)n2)C(C)(C)C1 (stereo not drawn) [Compound 965, N-[(6-amino-2-pyridyl)sulfonyl]-6-(5-isopropoxypyrazin-2-yl)-2-(2,2,4-trimethylpyrrolidin-1-yl)pyridine-3-carboxamide]"
2,+ (“+” means greater than 10 uM),"Cc1cc(C)c(Oc2nc(N3CCOCC3)ccc2C(=O)NS(=O)(=O)c2cccc(N)n2)c(C)c1 [Compound 966, N-[(6-amino-2-pyridyl)sulfonyl]-6-morpholino-2-(2,4,6-trimethylphenoxy)pyridine-3-carboxamide]"
3,+++ (“+++” means <3 uM),"Cc1cc(C)c(Oc2nc(OC(C)C)ccc2C(=O)NS(=O)(=O)c2cccc(N)n2)c(C)c1 [Compound 968, N-[(6-amino-2-pyridyl)sulfonyl]-6-isopropoxy-2-(2,4,6-trimethylphenoxy)pyridine-3-carboxamide]"
4,+++ (“+++” means <3 uM),"CCC1(CC)CCCN(c2nc(-c3ccc(OC(C)C)nc3)ccc2C(=O)NS(=O)(=O)c2cccc(N)n2)C1 [Compound 971, N-[(6-amino-2-pyridyl)sulfonyl]-2-(3,3-diethyl-1-piperidyl)-6-(6-isopropoxy-3-pyridyl)pyridine-3-carboxamide]"
5,+++ (“+++” means <3 uM),"CC1CN(c2nc(-c3cc(F)cc(OC(C)C)c3)ccc2C(=O)NS(=O)(=O)c2cccc(N)n2)C(C)(C)C1 (stereo not drawn) [Compound 972, N-[(6-amino-2-pyridyl)sulfonyl]-6-(3-fluoro-5-isopropoxy-phenyl)-2-(2,2,4-trimethylpyrrolidin-1-yl)pyridine-3-carboxamide]"
6,++ (“++” means between 3 uM and 10 uM),"Cc1cc(C)c(Oc2nc(C3=CCOCC3)ccc2C(=O)NS(=O)(=O)c2cccc(N)n2)c(C)c1 [Compound 976, N-[(6-amino-2-pyridyl)sulfonyl]-6-(3,6-dihydro-2H-pyran-4-yl)-2-(2,4,6-trimethylphenoxy)pyridine-3-carboxamide]"
7,++ (“++” means between 3 uM and 10 uM),"Cc1cc(C)c(Oc2nc(-c3cccc4[nH]ccc34)ccc2C(=O)NS(=O)(=O)c2cccc(N)n2)c(C)c1 [Compound 977, N-[(6-amino-2-pyridyl)sulfonyl]-6-(1H-indol-4-yl)-2-(2,4,6-trimethylphenoxy)pyridine-3-carboxamide]"

# The next lines start with the molecule.
row,SMILES,EC30
1,"CC(C)COc1cc(F)cc(-c2ccc(C(=O)NS(=O)(=O)c3cccc(N)n3)c(OC(C)Cc3ccccc3)n2)c1 (stereo not drawn) [Compound 967, N-[(6-amino-2-pyridyl)sulfonyl]-6-(3-fluoro-5-isobutoxy-phenyl)-2-(1-methyl-2-phenyl-ethoxy)pyridine-3-carboxamide]",+++ (“+++” means <3 uM)
2,"CC(C)COc1cc(F)cc(-c2ccc(C(=O)NS(=O)(=O)c3cccc(N)n3)c(N3CCC(Cc4ccccc4)C3C)n2)c1 (stereo not drawn) [Compound 969, N-[(6-amino-2-pyridyl)sulfonyl]-2-(3-benzyl-2-methyl-pyrrolidin-1-yl)-6-(3-fluoro-5-isobutoxy-phenyl)pyridine-3-carboxamide]",+++ (“+++” means <3 uM)
3,"CC(C)COc1cc(F)cc(-c2ccc(C(=O)NS(=O)(=O)c3cccc(N)n3)c(N3CCC4(CC3)CC4)n2)c1 [Compound 973, N-[(6-amino-2-pyridyl)sulfonyl]-2-(6-azaspiro[2.5]octan-6-yl)-6-(3-fluoro-5-isobutoxy-phenyl)pyridine-3-carboxamide]",+++ (“+++” means <3 uM)
4,"Cc1cc(C)c(Oc2nc(-c3cccc4c3OCO4)ccc2C(=O)NS(=O)(=O)c2cccc(N)n2)c(C)c1 [Compound 974, N-[(6-amino-2-pyridyl)sulfonyl]-6-(1,3-benzodioxol-4-yl)-2-(2,4,6-trimethylphenoxy)pyridine-3-carboxamide]",+++ (“+++” means <3 uM)
5,"COCC1CCN(c2nc(-c3cc(F)cc(OCC(C)C)c3)ccc2C(=O)NS(=O)(=O)c2ccn[nH]2)CC1 [Compound 975, 6-(3-fluoro-5-isobutoxy-phenyl)-2-[4-(methoxymethyl)-1-piperidyl]-N-(1H-pyrazol-5-ylsulfony)pyridine-3-carboxamide]",++ (“++” means between 3 uM and 10 uM)
